Results as given in patent US20190031665A1, “DERIVATIVES OF PYRROLOIMIDAZOLE OR ANALOGUES THEREOF WHICH ARE USEFUL FOR THE TREATMENT OF INTER ALIA CANCER” (EMCURE PHARMACEUTICALS LIMITED, priority 2016, published 2019).

What was measured:
[1] = molecular target: T1, human indoleamine 2,3-dioxygenase 1 (hIDO1) (Homo sapiens, UniProt P14902); test: In-vitro human indoleamine 2,3-dioxygenase 1 (IDO1) enzyme assay; type: biochemical; details: for IC50: hIDO1 enzyme; for inhibition at 1 µM: hIDO1 enzyme at 1.0 μM concentration; for inhibition at 10 µM: hIDO1 enzyme at 10.0 μM concentration
T1 construct: His tag (N); purchased BPS Bioscience, San Diego, Calif., USA; host or cells: E. coli
Experimental: (§1) In-vitro human indoleamine 2,3-dioxygenase 1 (IDO1) enzyme assay: In the in-vitro human indoleamine 2,3-dioxygenase 1 (hIDO1) enzyme assay for screening inhibitor compounds, hIDO1 with an N-terminal histidine tag expressed and purified from E. coli (BPS Bioscience, San Diego, Calif., USA) was used. All other materials were procured from Sigma-Aldrich, St. Louis, Mo., USA.
The assay method for monitoring the conversion of L-tryptophan to N-formylkynurenine by hlDO1 was carried out as follows. hlDO1 (50 ng) was incubated with tryptophan (80 μM) in the presence of ascorbic acid (10 mM), methylene blue (10 μM), catalase (100 μg/ml) and 0.01% Tween-20 in sodium phosphate buffer (50 mM; pH 6.5) at 37° C. for 60 min. The reaction was terminated with 200 mM piperidine (PIP) and further incubated at about 65° C. for about 20 minutes to convert N-formylkynurenine (NFK) to NFK-PIP. The reaction mixture was then incubated at room temperature for about 1 hour. The fluorescence intensity was read in a fluorescence microplate reader at an excitation wavelength of 400 nm and emission wavelength of 500 nm. Percent inhibition at each concentration of test compounds was determined by estimating the decrease in NFK-PIP. Data were analyzed using nonlinear regression to generate IC50 values using Graph Pad Prism® 6.

[2] = molecular target: T2, human tryptophan 2,3-dioxygenase (hTDO) (Homo sapiens, UniProt P48775); test: In-vitro human tryptophan 2,3-dioxygenase (TDO) enzyme assay; type: biochemical; details: for inhibition at 1 µM: hTDO enzyme at 1.0 μM concentration; for inhibition at 10 µM: hTDO enzyme at 10.0 μM concentration
T2 construct: His tag (N); purchased BPS Bioscience, San Diego, Calif., USA; host or cells: E. coli
Experimental: as §1, with “In” for “In-vitro human indoleamine 2,3-dioxygenase 1 (IDO1) enzyme assay: In”, “tryptophan” for “indoleamine”, “(hTDO)” for “1 (hIDO1)”, “hTDO” for “hIDO1”
The assay monitoring method for the conversion of L-tryptophan to N-formylkynurenine by hTDO was carried out as follows. hTDO (125 ng) was incubated in the presence of 200 μM L-tryptophan, 100 mM sodium phosphate buffer (pH 7.0), 0.01% Tween-20 and 100 μM ascorbic acid at about 37° C. for about 60 minutes. The reaction was terminated with 200 mM piperidine (PIP) and further incubated at about 65° C. for about 20 minutes to convert N-formylkynurenine (NFK) to NFK-PIP. The reaction mixture was then incubated at room temperature for about 75 minutes. The fluorescence intensity was read in a fluorescence microplate reader at an excitation wavelength of 400 nm and emission wavelength of 500 nm. Percent inhibition at each concentration of test compounds was determined by estimating the decrease in NFK-PIP. Data were analyzed using nonlinear regression to generate IC50 values using Graph Pad Prism® 6.

T1 sequence (P14902 whole entry): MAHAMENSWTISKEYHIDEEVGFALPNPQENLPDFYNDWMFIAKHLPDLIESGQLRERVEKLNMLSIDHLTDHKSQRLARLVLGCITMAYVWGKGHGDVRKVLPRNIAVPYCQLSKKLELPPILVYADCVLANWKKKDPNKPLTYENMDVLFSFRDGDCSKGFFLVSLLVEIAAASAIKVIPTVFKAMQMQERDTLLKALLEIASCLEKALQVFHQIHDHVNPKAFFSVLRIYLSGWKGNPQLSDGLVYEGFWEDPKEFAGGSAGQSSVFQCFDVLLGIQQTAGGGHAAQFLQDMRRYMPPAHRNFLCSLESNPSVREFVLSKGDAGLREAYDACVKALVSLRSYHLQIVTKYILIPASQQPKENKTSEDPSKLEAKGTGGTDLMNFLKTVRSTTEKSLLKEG
T2 sequence (P48775 whole entry): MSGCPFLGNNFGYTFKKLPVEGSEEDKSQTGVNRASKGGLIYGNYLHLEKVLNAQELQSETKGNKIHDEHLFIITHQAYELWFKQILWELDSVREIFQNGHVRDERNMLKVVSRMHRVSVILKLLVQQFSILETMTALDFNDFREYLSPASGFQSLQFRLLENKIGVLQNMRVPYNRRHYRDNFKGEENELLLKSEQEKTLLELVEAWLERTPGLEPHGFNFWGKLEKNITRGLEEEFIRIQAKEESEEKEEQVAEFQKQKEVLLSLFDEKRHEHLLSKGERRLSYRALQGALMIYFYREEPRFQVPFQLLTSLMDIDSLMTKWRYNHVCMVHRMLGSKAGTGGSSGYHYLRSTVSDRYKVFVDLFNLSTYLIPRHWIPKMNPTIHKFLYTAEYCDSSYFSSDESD

Row | IC50 [1] [nM] | inhibition at 1 µM [1] [%] | inhibition at 10 µM [1] [%] | inhibition at 1 µM [2] [%] | inhibition at 10 µM [2] [%] | Structure (SMILES)
1 | > 500 | ≥ 50 | ≥ 50 | ≥ 50 | – | CC1=C(c2ccccc2)C(CC(O)[C@H]2CC[C@H](C(=O)N[C@H]3CC[C@H](O)CC3)CC2)n2cncc21 (some centres unmarked) [Example 129]
2 | < 500 | ≥ 50 | ≥ 50 | ≥ 50 | – | CC1=C(c2ccccc2)C(CC(O)C2CCN(C(=O)Cc3ccccc3F)CC2)n2cncc21 (centres unmarked) [Example 139, 2-(2-Fluorophenyl)-1-(4-(1-hydroxy-2-(7-methyl-6-phenyl-5H-pyrrolo[1,2-c]imidazol-5-yl)ethyl)piperidin-1-yl)ethan-1-one]
3 | < 500 | ≥ 50 | ≥ 50 | ≥ 50 | – | CC1=C(c2ccccc2)C(CC(O)C2CCC(F)(F)CC2)n2cncc21 (centres unmarked) [Example 184]
4 | – | ≤ 50 | ≥ 50 | ≥ 50 | – | CC1=C(c2ccccc2)C(CC(=O)c2ccc(N3CCCCC3)cc2)n2cncc21 (centres unmarked) [Example 50, 2-(7-methyl-6-phenyl-5H-pyrrolo[1,2-c]imidazol-5-yl)-1-(4-(piperidin-1-yl)phenyl)ethan-1-one]
5 | – | ≤ 50 | ≤ 50 | ≤ 50 | – | CC1=C(c2ccccc2)C(CC(=O)c2ccc(-c3ccc(-c4ccccc4)cc3)cc2)n2cncc21 (centres unmarked) [Example 65]
6 | > 500 | – | ≥ 50 | ≥ 50 | ≥ 50 | CC1=C(c2ccccc2)C(CC(=O)C2CCCCC2)n2cncc21 (centres unmarked) [Example 88, 1-Cyclohexyl-2-(7-methyl-6-phenyl-5H-pyrrolo[1,2-c]imidazol-5-yl)-ethanone]
7 | – | ≤ 50 | ≥ 50 | ≥ 50 | ≥ 50 | CC1=C(c2ccccc2)C(CC(=O)C2CC2)n2cncc21 (centres unmarked) [Example 26, 1-Cyclopropyl-2-(7-methyl-6-phenyl-5H-pyrrolo[1,2-c]imidazol-5-yl)-ethanone]
8 | – | ≤ 50 | ≥ 50 | ≤ 50 | – | CC1=C(c2ccccc2)C(CC(O)CCC(=O)N2CCC(O)CC2)n2cncc21 (centres unmarked) [Example 174, 4-Hydroxy-1-(4-hydroxypiperidin-1-yl)-5-(7-methyl-6-phenyl-5H-pyrrolo[1,2-c]imidazol-5-yl)pentan-1-one]
9 | – | ≤ 50 | ≥ 50 | ≤ 50 | – | CC1=C(c2ccccc2C)C(CC(O)C2CCCCC2)n2cncc21 (centres unmarked) [Example 105]
10 | < 500 | ≥ 50 | ≥ 50 | ≥ 50 | – | CC1=C(c2ccccc2)C(CC(O)C2CCN(S(=O)(=O)C3CCCCC3)CC2)n2cncc21 (centres unmarked) [Example 163, 1-(1-Cyclohexanesulfonyl-piperidin-4-yl)-2-(7-methyl-6-phenyl-5H-pyrrolo[1,2-c]imidazol-5-yl)-ethanol]
11 | > 500 | ≥ 50 | ≥ 50 | ≥ 50 | – | CC1=C(c2ccccc2)C(CC(=O)c2ccc(Br)cc2)n2cncc21 (centres unmarked) [Example 51, 1-(4-bromophenyl)-2-(7-methyl-6-phenyl-5H-pyrrolo[1,2-c]imidazol-5-yl)ethan-1-one]
12 | – | ≤ 50 | ≤ 50 | ≥ 50 | – | CNC(=O)C1CCC(C(=O)CC2C(c3ccccc3)=C(C)c3cncn32)CC1 (centres unmarked) [Example 135]
13 | – | ≤ 50 | ≥ 50 | ≤ 50 | – | CC1=C(c2ccccc2)C(CC(O)C2CCN(c3ccccn3)CC2)n2cncc21 (centres unmarked) [Example 188, 2-(7-methyl-6-phenyl-5H-pyrrolo[1,2-c]imidazol-5-yl)-1-(1-(pyridin-2-yl)piperidin-4-yl)ethan-1-ol]
14 | < 500 | ≥ 50 | ≥ 50 | ≥ 50 | – | CC1=C(c2ccccc2)C(CC(=O)c2ccc(F)c(Cl)c2)n2cncc21 (centres unmarked) [Example 39, 1-(3-chloro-4-fluorophenyl)-2-(7-methyl-6-phenyl-5H-pyrrolo[1,2-c]imidazol-5-yl)ethan-1-one]
